Experimental data: patent US11230711B2, “Inhibition of LET7I as a means to enhance the protective effect of progesterone against stroke” (UNIVERSITY OF NORTH TEXAS HEALTH SCIENCE CENTER, priority 2017, dated 2022)

Test system: primary cortical astrocytes
Assay: BDNF release from primary cortical astrocytes, BDNF in situ ELISA
Type: cell-based, mouse
Description: To define the amount of endogenous BDNF released, we will modify the ELISA in situ protocol developed by Promega. A 96-well Nunc MaxiSorp surface polystyrene flat-bottom immunoplate was precoated with an anti-BDNF monoclonal antibody [diluted 1:1,000 in coating buffer (25 mM sodium bicarbonate and 25 mM sodium carbonate, pH 9.7)]. After rinsing off unbound antibody with TBS-T buffer [20 mM Tris-HCl (pH 7.6), 150 mM NaCl and 0.05% (v/v) Tween-20] and blocking the plate to minimize nonspecific binding, the culture media was added to the plate for 2 hrs to equilibrate the cell growth environment. […] The amount of specifically bound polyclonal antibody was then detected through the use of the anti-IgY-horseradish peroxidase (HRP) tertiary antibody (final concentration=0.5 μg/mL), which when exposed to the chromogenic substrate (TMB reagent; Promega), changes color in proportion to the amount of BDNF present in the sample. The color intensity was quantified by measuring the absorbance at 450 nm with a Viktor3 ELISA plate reader (Perkin Elmer). […] The amount of specifically bound polyclonal antibody was then detected through the use of the anti-IgY-horseradish peroxidase (HRP) tertiary antibody, which when exposed to the chromogenic substrate (TMB reagent, Promega), changes color in proportion to the amount of BDNF present in the sample. […]

Structure (SMILES): CC(=O)[C@H]1CC[C@H]2[C@@H]3CCC4=CC(=O)CC[C@]4(C)[C@H]3CC[C@]12C [P4, progesterone]
- BDNF release in P4-treated cultures (astrocyte cultures, control cultures as little as 2 pg/ml): ~250 pg/mL
- P4-induced BDNF release after OGD (primary cortical astrocytes exposed to one-hour OGD, FIG. 8B): compromised
